Data reported in US20070003531A1, “Methods for improving immunotherapy by enhancing survival of antigen-specific cytotoxic T lymphocytes” (University of Connecticut, priority 2005, published 2007).
“Also recorded” adds a separate entry of the source.

Key:
[1] = biological target: c-jun N-terminal kinase; details: cited from earlier work
[2] = test system: AIF release in Jurkat cells; assay: AIF release in CD3 induced AICD in Jurkat cells; assay type: cell-based, human
Source text: FIG. 14. Nuclear translocation of AIF and effect of SP600125 on the AIF release and such translocation. The MART-1 epitope specific CTLs generated in the in vitro CTL generation protocol were restimulated by the cognate epitope or a control epitope in the presence or absence of the JNK inhibitor SP600125. (A) Western blot of heavy membrane faction (HM) and cytosolic fraction (S-100) of control CTL (C) and CTLs restimulated by the cognate peptide (M1). As shown, AIF is released in the cytosol of CTLs encountering the cognate peptide without any release of cytochrome c. (B) Effect of SP600125 on AIF release in CD3 induced AICD in Jurkat cells. As shown, AIF is released without cytochrome c release in these cells and SP600125 interferes with the AIF release. (C) Densitometric analysis of the SP600125 effect on AIF release.

[3] = test system: Bcl family proteins in CTL; assay: Western blot of Bcl family pro- and anti-apoptotic proteins in CTL after secondary stimulation; assay type: cell-based, human
Description: (§1) FIG. 12. Effect of antigen specific secondary stimulation on mitochondrial transmembrane membrane potential (Δψm), pro- and anti-apoptotic protein and expression of cell surface molecules. (A) Differential effect on membrane polarization in Mart-1 primary CTLs (top panel) vs. Jurkat T cells (bottom panel). CTLs were incubated with T2 cells either alone or loaded with peptide. After overnight secondary exposure cells were stained with Mart-1 tetramer/CD8 and DiOC6. Histogram represents the fluorescence of DiOC6 in the gated antigen specific tetramer^+ population (top panel). Jurkat T cells were also analyzed for modulation of membrane potential after TCR-driven stimulation (bottom panel). Values represent the mean±SD of fluorescence intensity triplicates from one out of three separate experiment. *p<0.001 (One Way ANOVA). […] (C) Expression of different cell surface receptors for survival or death signal in antigen specific population upon secondary stimulation. Values on left upper corner represent the geometric mean of the fluorescence intensity for that particular marker when stimulated with T2/MAGE-3271-279 while that on right upper corner represent the geometric mean of the fluorescence intensity when stimulated with T2/MART-127-35.
Washed cell pellets were lysed in RIPA buffer and a cytosolic fraction was prepared by spinning the lysate at 15,000 rpm. Proteins (20 μg/well) were separated on 15% SDS-PAGE, transferred onto nitrocellulose filters, probed with appropriate antibodies. Antibodies for Bcl-2, phospho Bcl-2, Bim, BCI-XL, Bax, Actin were purchased from Santa-Cruz Biotechnology, Santa-Cruz, Calif. Anti-Mcl-1 antibody was purchased from BD Pharmingen, Palo Alto, Calif. Blots were developed by HRP-tagged secondary antibody (Santa-Cruz Biotechnology, Santa-Cruz, Calif.) using a chemoluminescence kit (Amersham Biosciences, Buckinghamshire, U. K.).

[4] = test system: Mart-1 primary CTLs; assay: Mitochondrial transmembrane potential (DiOC6 staining); assay type: cell-based, human; details: induced by re-stimulation with cognate peptide; data not shown
Description: as §1

[5] = test system: MART-127-35 epitope specific CTLs; assay: IFN-γ response assay (ELISA); assay type: cell-based, human
Description: IFN-γ response assay for the effector cells has been described previously. Briefly, the effector cells were co-cultured with the peptide pulsed (1 μg/ml) T2 cells. After 4-16 h, culture supernatants were harvested and IFN-γ was measured by ELISA as per manufacturer's protocol (R & D Systems, MN).

[6] = test system: MART-127-35 tetramer+/CD8+ CTLs; assay: Survival of antigen specific CTLs five days after secondary encounter of the epitope; assay type: cell-based, human; details: day five in IL-15 after overnight co-culture with cognate epitope; inhibitor 25 μM then washed off
Description: FIG. 13. Survival of the antigen specific CTLs following secondary encounter of the epitope in the presence of anthra[1,9-cd]pyrazol-6(2H)-one (SP600125) and recovery of function in the pyrazoloanthrone rescued CTLs. Effector cells were co-cultured with peptide pulsed T2 cells in the presence or absence of the kinase inhibitors (25 μM). The cultures were washed about 18 h later and then recultured in IL-15 containing medium. On day five, the numbers of the viable antigen specific CTLs were determined. […] The number (11%) of MART-127-35 tetramer^+/CD8^+ population exposed to MART-127-35 peptide pulsed T2 cells (T2/M1) is a reflection of loss of epitope specific CTLs from AICD. […] (B) IFN-γ response by the recovered populations (M3=MAGE-3271-279, M1=MART-127-35).
Finally, the functional status of SP600125 rescued CTLs upon continuous culture was examined. After overnight exposure of the CTLs to the cognate epitope in the presence or absence of SP600125, the CTLs were washed and then maintained in continuous culture in IL-15 containing CM without the inhibitor. Five days after, the number of viable MART-127-35 tetramer positive cells were determined and their function was tested in the IFN-γ response assay. […] Remarkably, the rescued CTLs regained their capacity to synthesize IFN-γ (FIG. 13B).

SMILES: O=C1c2ccccc2-c2n[nH]c3cccc1c23 [SP600125, anthra[1,9-cd]pyrazol-6(2H)-one]
- Ki [1]: ~190 nM
- AIF release in Jurkat cells [2]: interferes
- BCI-XL expression [3]: non-selectively up regulated
- Bcl-2 expression [3]: non-selectively up regulated
- Mcl-1 level [3]: selectively up regulated; also recorded: increased
- phosphorylated Bcl-2 level [3]: selectively up regulated; also recorded: increased
- level of hyper polarization of mitochondrial transmembrane potential [4]: decreased
- IFN-γ synthesis by rescued CTLs ([5]; five days continued culture in IL-15 without the inhibitor): regained
- IFN-γ response by CTLs in presence of inhibitor ([5]; peptide pulsed T2 cells, inhibitor 25 μM): inhibited; also recorded: negatively regulates
- fraction of starting epitope specific population recovered [6]: larger fraction
